Experimental data as given in patent US6432954B1, “Pharmaceutical compositions and methods for use” (Targacept, Inc., priority 2000, dated 2002).

Legend:
Assay type in all cases: physicochemical
[1] = Water absorption (hygroscopicity) of the salt
From the text: (§1) The salts of the present invention which are derived from aryl substituted amines and 2,3-diacyl-tartaric acids have a number of advantages over other salts derived from aryl substituted amines and other acids, such as fumaric acid or galactaric acid. […] As such, the di-p-toluoyl-D-tartrate salt of (2S)-(4E)-N-methyl-5-[3-(5-isopropoxypyridin)yl)]-4-penten-2-amine is a free-flowing crystalline powder; and such a property is a definite advantage for pharmaceutical formulation development and pharmaceutical manufacturing. If necessary, this salt can be milled to an acceptable particle size range for pharmaceutical processing. […] The salt is compatible with a wide range of excipients that might be chosen for the manufacture of solid oral dosage forms. This is especially so for those exicipients, such polysaccharide derivatives, that are pharmaceutically defined hydrates and those with only loosely bound surface water. As an illustration, salts derived from certain aryl substituted amines, such as E-metanicotine and fumaric acid are prone to the formation of impurities within the salt. For example, impurities arise from the Michael addition reaction of the secondary amine in E-metanicotine to the olefin in fumaric acid. These impurities lower the chemical purity of the salt and adversely affect the chemical integrity of the salt upon long-term storage. […]

[2] = Water solubility of the salt
From the text: as §1

[3] = Physical and chemical stability of the salt
From the text: as §1

Structure (SMILES)	amount of water absorbed ([1]; 40° C. and 70% relative humidity)	amount of water absorbed ([1]; room temperature and 90% relative humidity)	water solubility [2]	stability [3]
CN[C@@H](C)C/C=C/c1cncc(OC(C)C)c1.CN[C@@H](C)C/C=C/c1cncc(OC(C)C)c1.O=C(O)[C@@H](O)[C@H](O)[C@H](O)[C@@H](O)C(=O)O [hemigalactarate of (2S)-(4E)-N-methyl-5-[3-(5-isopropoxypyridin)yl)]-4-penten-2-amine, reference compound]	11.8%			
CN[C@@H](C)C/C=C/c1cncc(OC(C)C)c1 [Sample No. 2, (2S)-(4E)-N-methyl-5-[3-(5-isopropoxypyridin)yl]-4-penten-2-amine hemi-(di-p-toluoyl-D-tartrate)]		3.2%	water soluble	physically and chemically stable
